In ChEMBL document CHEMBL3232814, “Synthesis and anticancer structure activity relationship investigation of cationic anthraquinone analogs” (2014):

Tests used:
Format in all cases: functional
[1] = Growth inhibition of human NCI60 cells assessed as cell growth; parameters: concentration or dose not given beside the values
[2] = Growth inhibition of human LOXIMVI cells; conditions: LOX IMVI; for CC50: read-out: LC50 (the source's name)
Malme-3M = assay: Growth inhibition of human MALME-3M cells; conditions: for CC50: read-out: LC50 (the source's name)
M14 = assay: Growth inhibition of human M14 cells; conditions: for CC50: read-out: LC50 (the source's name)
MDA-MB-435 = assay: Growth inhibition of human MDA-MB-435 cells; conditions: for CC50: read-out: LC50 (the source's name)
SK-MEL-2 = assay: Growth inhibition of human SK-MEL-2 cells; conditions: for CC50: read-out: LC50 (the source's name)
SK-MEL-28 = assay: Growth inhibition of human SK-MEL-28 cells; conditions: for CC50: read-out: LC50 (the source's name)
SK-MEL-5 = assay: Growth inhibition of human SK-MEL-5 cells
[3] = Growth inhibition of human UACC257 cells; conditions: for GI50: UACC-257; for CC50: UACC-257, read-out: LC50 (the source's name)
[4] = Growth inhibition of human UACC62 cells; conditions: for GI50: UACC-62; for CC50: UACC-62, read-out: LC50 (the source's name)
COLO 205 = assay: Growth inhibition of human COLO205 cells; conditions: for CC50: read-out: LC50 (the source's name)
[5] = Growth inhibition of human HCC2998 cells; conditions: for GI50: HCC 2998; for CC50: HCC 2998, read-out: LC50 (the source's name)
HCT-116 = assay: Growth inhibition of human HCT116 cells; conditions: for CC50: read-out: LC50 (the source's name)
[6] = Growth inhibition of human HCT15 cells; conditions: for GI50: HCT-15; for CC50: HCT-15, read-out: LC50 (the source's name)
HT-29 = assay: Growth inhibition of human HT-29 cells
KM12 = assay: Growth inhibition of human KM12 cells; conditions: for CC50: read-out: LC50 (the source's name)
SW-620 = assay: Growth inhibition of human SW620 cells; conditions: for CC50: read-out: LC50 (the source's name)
A549 = assay: Growth inhibition of human A549 cells; conditions: for CC50: read-out: LC50 (the source's name)
[7] = Growth inhibition of human EKVX cells; conditions: for CC50: read-out: LC50 (the source's name)
HOP-62 = assay: Growth inhibition of human HOP62 cells; conditions: for CC50: read-out: LC50 (the source's name)
[8] = Growth inhibition of human HOP92 cells; conditions: for GI50: HOP-92; for CC50: HOP-92, read-out: LC50 (the source's name)
NCI-H226 = assay: Growth inhibition of human NCI-H226 cells; conditions: for CC50: read-out: LC50 (the source's name)
NCI-H23 = assay: Growth inhibition of human NCI-H23 cells; conditions: for CC50: read-out: LC50 (the source's name)
NCI-H322M = assay: Growth inhibition of human NCI-H322M cells; conditions: for CC50: read-out: LC50 (the source's name)
NCI-H460 = assay: Growth inhibition of human NCI-H460 cells; conditions: for CC50: read-out: LC50 (the source's name)
NCI-H522 = assay: Growth inhibition of human NCI-H522 cells; conditions: for CC50: read-out: LC50 (the source's name)
SF-268 = assay: Growth inhibition of human SF268 cells; conditions: for CC50: read-out: LC50 (the source's name)
[9] = Growth inhibition of human SF295 cells; conditions: SF-295
[10] = Growth inhibition of human SF539 cells; conditions: for GI50: SF-539; for CC50: SF-539, read-out: LC50 (the source's name)
SNB-19 = assay: Growth inhibition of human SNB19 cells
SNB-75 = assay: Growth inhibition of human SNB75 cells; conditions: for CC50: read-out: LC50 (the source's name)
U-251 = assay: Growth inhibition of human U251 cells

C[n+]1nn(-c2ccc(C(F)(F)F)cc2)c2c1C(=O)c1ccccc1C2=O.O=S(=O)([O-])C(F)(F)F
Activity [1]: 58.69%
GI50 [2]: 2.68 µM
CC50 [2]: 36.8 µM
GI50 (Malme-3M): 1.84 µM
CC50 (Malme-3M): 9.35 µM
GI50 (M14): 0.54 µM
CC50 (M14): 4.38 µM
GI50 (MDA-MB-435): 1.09 µM
CC50 (MDA-MB-435): 7.28 µM
GI50 (SK-MEL-2): 12.5 µM
CC50 (SK-MEL-2): > 100 µM
GI50 (SK-MEL-28): 12.8 µM
CC50 (SK-MEL-28): 56.5 µM
GI50 (SK-MEL-5): 0.16 µM
LC50 (lethal concentration 50) (SK-MEL-5): 0.57 µM
GI50 [3]: 3.24 µM
CC50 [3]: 43.1 µM
GI50 [4]: 1.67 µM
CC50 [4]: 30.6 µM
GI50 (COLO 205): 1.32 µM
CC50 (COLO 205): 5.73 µM
GI50 [5]: 1.52 µM
CC50 [5]: 12.9 µM
GI50 (HCT-116): 3.42 µM
CC50 (HCT-116): 41.9 µM
GI50 [6]: 3.48 µM
CC50 [6]: 84 µM
GI50 (HT-29): 4.1 µM
LC50 (HT-29): > 100 µM
GI50 (KM12): 8.17 µM
CC50 (KM12): 55.9 µM
GI50 (SW-620): 14 µM
CC50 (SW-620): 64.3 µM
GI50 (A549): 0.86 µM
CC50 (A549): > 100 µM
GI50 [7]: 23.4 µM
CC50 [7]: > 100 µM
GI50 (HOP-62): 2.12 µM
CC50 (HOP-62): 26 µM
GI50 [8]: > 100 µM
CC50 [8]: > 100 µM
GI50 (NCI-H226): 10.1 µM
CC50 (NCI-H226): 89.4 µM
GI50 (NCI-H23): 0.36 µM
CC50 (NCI-H23): 5.33 µM
GI50 (NCI-H322M): 0.83 µM
CC50 (NCI-H322M): 4.86 µM
GI50 (NCI-H460): 1.4 µM
CC50 (NCI-H460): 7.77 µM
GI50 (NCI-H522): 14.3 µM
CC50 (NCI-H522): 68.2 µM
GI50 (SF-268): 18.7 µM
CC50 (SF-268): > 100 µM
GI50 [9]: 0.54 µM
LC50 (concentration killing 50% of cells) [9]: 6.74 µM
GI50 [10]: 4.68 µM
CC50 [10]: 46.7 µM
GI50 (SNB-19): 1.45 µM
LC50 (SNB-19): 6.54 µM
GI50 (SNB-75): 1.07 µM
CC50 (SNB-75): 11.2 µM
GI50 (U-251): 14 µM
LC50 (U-251): 56.8 µM

C[n+]1nn(-c2ccc(Cl)cc2)c2c1C(=O)c1ccccc1C2=O.O=S(=O)([O-])C(F)(F)F
Activity [1]: 101.7%

C[n+]1nn(-c2ccc(F)cc2)c2c1C(=O)c1ccccc1C2=O.O=S(=O)([O-])C(F)(F)F
Activity [1]: 43.38%
GI50 [2]: 1.35 µM
CC50 [2]: 8.17 µM
GI50 (Malme-3M): 0.35 µM
CC50 (Malme-3M): 4.75 µM
GI50 (M14): 0.34 µM
CC50 (M14): 3.89 µM
GI50 (MDA-MB-435): 0.26 µM
CC50 (MDA-MB-435): 2.21 µM
GI50 (SK-MEL-2): 2.27 µM
CC50 (SK-MEL-2): 33.7 µM
GI50 (SK-MEL-28): 4.27 µM
CC50 (SK-MEL-28): 45.9 µM
GI50 (SK-MEL-5): 0.17 µM
LC50 (lethal concentration 50) (SK-MEL-5): 0.6 µM
GI50 [3]: 0.6 µM
CC50 [3]: 6.93 µM
GI50 [4]: 1.55 µM
CC50 [4]: 7.67 µM
GI50 (COLO 205): 0.35 µM
CC50 (COLO 205): 3.54 µM
GI50 [5]: 1.4 µM
CC50 [5]: 8.22 µM
GI50 (HCT-116): 1.5 µM
CC50 (HCT-116): 8.19 µM
GI50 [6]: 3.72 µM
CC50 [6]: 50.9 µM
GI50 (HT-29): 2.51 µM
LC50 (HT-29): 48 µM
GI50 (KM12): 2.4 µM
CC50 (KM12): 33.5 µM
GI50 (SW-620): 6.12 µM
CC50 (SW-620): 47.5 µM
GI50 (A549): 0.67 µM
CC50 (A549): 5.46 µM
GI50 [7]: 3.28 µM
CC50 [7]: 62 µM
GI50 (HOP-62): 2.4 µM
CC50 (HOP-62): 32.9 µM
GI50 [8]: 10.7 µM
CC50 [8]: > 100 µM
GI50 (NCI-H226): 2.26 µM
CC50 (NCI-H226): 23 µM
GI50 (NCI-H23): 0.82 µM
CC50 (NCI-H23): 7.25 µM
GI50 (NCI-H322M): 0.45 µM
CC50 (NCI-H322M): 4.22 µM
GI50 (NCI-H460): 0.63 µM
CC50 (NCI-H460): 9 µM
GI50 (NCI-H522): 12.1 µM
CC50 (NCI-H522): 53.8 µM
GI50 (SF-268): 3.67 µM
CC50 (SF-268): 46 µM
GI50 [9]: 0.58 µM
LC50 (concentration killing 50% of cells) [9]: 4.94 µM
GI50 [10]: 1.83 µM
CC50 [10]: 8.4 µM
GI50 (SNB-19): 1.37 µM
LC50 (SNB-19): 5.88 µM
GI50 (SNB-75): 1.94 µM
CC50 (SNB-75): 7.17 µM
GI50 (U-251): 7.86 µM
LC50 (U-251): 45.3 µM
